The record followed here is patent US11415571B2, “Large scale organoid analysis” (Tempus Labs, Inc., priority 2019, dated 2022).

The structures appear in SMILES notation.

The test system of assay [1] is colon cancer tumor organoid line. The experiment in a line: high throughput tumor organoid drug screen, per-organoid viability histogram. The class given is cell-based, human. The settings on record: caspase 3/7 readout, 10,000 nM dose. The method, then: (§1) TOs were dissociated as described above and resuspended in a 30:70% mix of GFR Matrigel:growth media at a concentration of 100 cells/μl. The solution was added to 384-well assay plates (Corning) at 20 μl per well for a final concentration of 2,000 cells per well. Assay plates were covered with a Breathe-Easy sealing membrane (Sigma Aldrich) to prevent evaporation. TOs were grown for 72 hours before drug addition. Drugs were prepared in growth media with 2.5 μM Caspase-3/7 Green Apoptosis Assay Reagent (Essen Bioscience). Serial dilutions of each molecule were prepared in 384-well polystyrene plates (Nunc). Diluted drug was added to the assay plate using an Integra Viaflo pipette (Integra) mounted on an Integra Assist Plus Pipetting Robot (Integra). Assay plates were again covered with a Breathe-Easy sealing membrane and TOs were exposed to drugs for another 72 hours before imaging.
(§2) Prior to imaging, TOs were incubated with 4 μM Hoechst 33342 (Fisher Scientific) and 300 nM TO-PRO-3 Iodide (642/661) (Invitrogen) for 1.5-2 hours. Assay plates were imaged using an ImageXpress Micro Confocal (Molecular Devices) at 10× magnification so that ˜100-200 TOs were imaged per well. Images were acquired as 4×15 μm Z-stacks and the 2D projections were analyzed to assess cell viability. Confocal images were analyzed using the MetaXpress software (Molecular Devices) custom module editor feature to design an analysis module that identified TOs by clusters of Hoechst 33342 staining, individual cells by Hoechst 33342 staining, and dead/dying cells by either TO-PRO-3 or Caspase-3/7 staining. The result of this analysis module is a spreadsheet detailing the number of live and dead cells for every individual organoid.
(§3) The percentage of viable cells per organoid was calculated based on the image analysis described above. Organoids with fewer than three cells and larger than the top one percent by size were excluded from analysis. The mean viability for all organoids at a given drug concentration was used in dose-response curves to calculate AUC. AUC was calculated using the computeAUC function using settings for “actual” AUC of the R Package PharmacoGx (v1.17.1). Heatmaps of AUC values were generated using the Pheatmap package (v1.0.12) in R. Scatterplots of AUC values were generated using the ggplot2 package (v3.3.0) in R.
(§4) In this example, data for each therapy is presented as a histogram. […] Viability was determined by the systems and methods disclosed above.
(§5) Each tumor organoid line in these examples was cultured individually in wells of a tissue culture plate, as described above.
In this example, tissue culture wells containing a colon cancer tumor organoid line were each exposed to one of the therapies listed above.

Assay [2] relates to second lung cancer tumor organoid line. The description is as above. As to the method: as §1, §2, §3, §4, §5
In this example, tissue culture wells containing a second lung cancer tumor organoid line were each exposed to one of the therapies listed above.

Assay [3] concerns colorectal cancer tumor organoid line. The description is as above. The class given is cell-based, human. Conditions: caspase 3/7 readout, 10,000 nM dose. The method, then:
as §1, §2, §3, §4, §5
In this example, tissue culture wells containing a colorectal cancer tumor organoid line were each exposed to one of the therapies listed above.

The test system of assay [4] is tumor organoid culture line 10941-12002. The experiment in a line: caspase 3/7 apoptosis assay, olaparib dilution series on tumor organoids. It is filed as cell-based, human. The settings on record: tumor without BRCA1 or BRCA2 mutation. As to the method: (§6) Tumor biopsies were collected from four individuals: UK1393, 10423-12001, 10524-12001, and 10941-12002. The tumors were genotyped and determined not carry BRCA1 or BRCA2 mutations. As such, according to conventional guidance, the tumors are not indicated for first-line therapy with a PARP inhibitor. In order to test whether these tumors may still be sensitive to PARP inhibitors, despite not carrying a BRCA1 or BRCA2 mutation, tumor organoids were cultured using cells from the biopsied material.
(§7) Briefly, cells within each of the biopsied tumor samples were dissociated and cultured to establish a tumor organoid culture line from the tumor of each individual. Single tumor organoids from the tumor organoid culture lines were collected and plated, individually, into wells of a multiwell plate with culture medium. A series of six concentrations of olaparib, in a 5-fold serial dilution, were established for the tumor organoids derived from each individual, as well as negative controls. After incubation with olaparib, a caspase 3/7 apoptosis assay was performed in each well, to determine the sensitivity of each tumor organoid to the respective concentration of olaparib. Results of the […] dilution series experiments are plotted in FIG. 3.

Assay [5] concerns tumor organoid culture line 10423-12001. The description is as above. The class given is cell-based, human. Conditions: tumor without BRCA1 or BRCA2 mutation. As to the method: as §6, §7
Assay [6] relates to tumor organoid culture line UK1393. Described as above. The class given is cell-based, human. The settings on record: tumor without BRCA1 or BRCA2 mutation. As to the method: as §6, §7
In assay [7] the test system is tumor organoid culture line 10524-12001. The assay is described as above. The class given is cell-based, human. Conditions: tumor without BRCA1 or BRCA2 mutation. The method, then: as §6, §7
Setting [8] is: Homo sapiens, read-out: mean viability for all organoids in the plot.
[9] abbreviates: caspase 3/7 readout, 10,000 nM dose.

As usually defined, the viability is the share of living cells, or the viability signal relative to a control. `CC(=O)O[C@@]12CO[C@@H]1C[C@H](O)[C@@]1(C)C(=O)[C@H](O)C3=C(C)[C@@H](OC(=O)[C@H](O)[C@@H](NC(=O)OC(C)(C)C)c4ccccc4)C[C@@](O)([C@@H](OC(=O)c4ccccc4)[C@H]21)C3(C)C` [Docetaxel]: the viability at 10 µM is about 20% in assay [1] (setting [8]), about 30% in assay [2] (setting [8]) and about 45% in assay [3] (setting [8]). The entries for the “organoids of the line that are resistant to the drug” value in assay [1], in assay [2] (setting [9]) and in assay [3] were “general absence”, “presence of a small proportion” and “presence of organoids”, respectively. In addition, the “organoids with 0% viability (susceptible to the drug)” value in assay [1] is “Approximately 70 organoids”; in assay [2] (setting [9]), “Approximately 50 organoids”; in assay [3], “Approximately 35 organoids”. Besides, the “organoids with 100% viability (resistant to the drug)” value in assay [1] is “Approximately 15 organoids”; in assay [2] (setting [9]), “Approximately 20 organoids”; in assay [3], “Approximately 30 organoids”.
For the compound `O=C(c1cc(Cc2n[nH]c(=O)c3ccccc23)ccc1F)N1CCN(C(=O)C2CC2)CC1` [Olaparib], the sensitivity to olaparib entry in assay [4], in assay [5] and in assay [7] was “fairly insensitive” throughout. For the same compound, in assay [6], the “sensitivity to olaparib compared with the other tumor organoid culture lines” value is “more than 100 fold”.
